What all share (format): cell-based, human
Experiment [1] deals with HTLV-1 infected cells in HAM patient's PBMC. Kind of experiment: HTLV-1 pro-viral load (infected cell rate) in HAM patient-derived PBMC by real time PCR. The settings on record: 12 days culture; for Reduction in HTLV-1 pro-viral load: 1000 nM, average of all HAM patients; for Cases in which HTLV-1 pro-viral load in HAM patient's PBMC decreases: PBMC of 8 HAM patients. On the procedure:
PBMC taken from 8 HAM patients were suspended in a culture medium (RPMI1640 culture medium containing 10% FBS) and seeded in a 48-well plate in a ratio of 5×10^5 cells per well, and compound A or compound B was added so as to provide a final concentration of 1, 10, 100 or 1000 nM. The culture solution of 0.5 mL in total was cultured at 37° C. in 5% CO2 conditions for 12 days. A group treated with DMSO and a group treated with PSL (1 μg/mL) were used as controls. Day 12 after initiation of culture, the culture solution was centrifuged, and thereafter, the cell suspension was recovered from each of the cultures carried out under different conditions and centrifuged. After the supernatant was removed, the cell pellet was subjected to genomic DNA extraction. The genome DNA extracted was subjected to real time PCR to measure HTLV-1 pro-viral load (infected cell rate) (Yamano et al., Blood. 2002, 99 (1): 88-94). Based on the HTLV-1 pro-viral load in cells, which were obtained by adding DMSO to each of the HAM patient's PBMC and culturing the PBMC, as 100%, the relative value of HTLV-1 pro-viral load in a group treated with compound A, compound B or PSL was calculated, and then, an average value of 8 HAM patient cases was obtained. The significance test was carried out by using the Friedman test of GraphPad Prism6 (MDF).

The subject of the next experiment is HCT-4 cells. The experiment in a line: Apoptosis of HCT-4 cells (Annexin V-PE / 7-AAD, FACS). The settings on record: HCT-4, 1 μM, 21 days. The procedure: In this Example, experiments were carried out using the cells cultured for 21 days in Example 5. To detect apoptotic cells in the cells cultured for 21 days by adding 1 μM of compound A or compound B, the cells were stained by use of PE Annexin V apoptosis Detection Kit I (BD) and analyzed by FACS. In this analysis, the viable cells were detected based on FSC (forward scatter)-SSC (side scatter) plots. The viable cells were analyzed by Annexin V-PE (annexin V) and 7-AAD (7-amino actinomycin D). Early apoptotic cells were detected as Annexin V (+) 7-AAD (−) cells. The results were as shown in FIG. 8 (HCT-4 cells) and FIG. 9 (HCT-5 cells).

In a further experiment the test system is HAM patient-derived PBMC. The experiment in a line: Autoproliferation (3H-thymidine incorporation) of HAM patient-derived PBMC without stimulation. The settings on record: for GI50: Homo sapiens, 6 days culture, 3H-thymidine; for Suppression of autoproliferation activity of HAM patient-derived PBMC: no stimulation, relative to DMSO group. The procedure:
PBMC taken from 8 HAM patients were suspended in culture mediums (RPMI1640 culture medium (wako) containing 10% FBS (GIBCO)), seeded in a 96-well round-bottom plate in a ratio of 1×10^5 cells per well (3 wells were used for each concentration), and compound A or compound B was added so as to provide a final concentration of 1, 10, 100 or 1000 nM. Culture was carried out at 37° C. in 5% CO2 conditions for 6 days. The DMSO treatment group and the PSL (1 μg/mL) treatment group were used as controls. Day 6 after initiation of culture, 1 μCi ^3H-thymidine was added to each well and culture was carried out at 37° C., in 5% CO2 conditions for 16 hours. Thereafter, the cultured cells were allowed to adsorb to a glass filter (Printed Filtermat A, PerkinElmer) by a cell harvester (Tomtec MH3, PerkinElmer), dried and impregnated with solid scintillator Meltilex-A (PerkinElmer). The amount of the ^3H-thymidine incorporated in the cells was measured by use of MicroBeta (WALLAC MicroBeta TriLux 1450-021) (Yamano et al., PLoS One. 2009, 4(8): e6517). Based on the average count of ^3H-thymidine in the DMSO treatment group of HAM patients' PBMC as 100%, the relative values of the groups treated with compound A, compound B and PSL (1 μg/mL) were obtained by calculation, and then, an average value of 8 HAM patient cases was obtained. A significance test was carried out in accordance with the Friedman test of GraphPad Prism6 (MDF).
The number of patients was increased to 16 and the same experiment as above was carried out.
Effect on HAM patient-derived PBMC was checked in the same manner as in the above Example except that an EZH2 inhibitor was used in place of compounds A and B.
As the EZH2 inhibitor, GSK126 (CAS No.: 1346574-57-9) and E7438 (CAS No.: 1403254-99-8) were used. The concentration for treatment was 1, 10, 100, 1000 or 10000 nM in terms of final concentration. In the experiment, PBMC samples taken from the 8 persons before the number of cases increased in the above were used.
A general note: Dividing cells build labelled thymidine or BrdU into new DNA.

Where [2] appears, read: PBMC of 8 HAM patients, read-out: GI50, autoproliferation activity of HAM patient-derived PBMC.
Setting [3] is: PBMC of 16 HAM patients, read-out: GI50, spontaneous proliferation activity of HAM patient-derived PBMC.

Where two headings read alike, the source gives them in different places.

For `Cc1cc(C)c(CNC(=O)c2cc(Br)c3c(c2C)O[C@@](C)([C@H]2CC[C@H](N(C)C)CC2)O3)c(=O)[nH]1` [compound A, (2R)-7-bromo-2-[trans-4-(dimethylamino)cyclohexyl]-N-[(4,6-dimethyl-2-oxo-1,2-dihydropyridin-3-yl)methyl]-2,4-dimethyl-1,3-benzodioxole-5-carboxamide], in experiment [1], the “Reduction in HTLV-1 pro-viral load” value was “significant reduction in pro-viral load” and the “Cases in which HTLV-1 pro-viral load in HAM patient's PBMC decreases” value is given as 5 out of 8. Moreover, in the experiment with HCT-4 cells, the “Number of early apoptotic cells (Annexin V (+) 7-AAD (−))” value was “the number of early apoptotic cells increased” and the “Number of viable cells (FSC-SSC)” value is given as “the number of viable cells decreases”. Besides, the GI50 with HAM patient-derived PBMC (setting [2]) stood at 73 nM. Moreover, the GI50 in the experiment on HAM patient-derived PBMC (setting [3]) stood at 45.6 nM. In the experiment on HAM patient-derived PBMC, the “Suppression of autoproliferation activity of HAM patient-derived PBMC” value is given as “suppressed autoproliferation activity of PBMC in all the eight HAM patient cases, in a concentration-dependent manner”.
As to `Cc1cc(C)c(CNC(=O)c2cc(Cl)c3c(c2C)O[C@@](C)([C@H]2CC[C@H](N(C)C)CC2)O3)c(=O)[nH]1` [compound B, (2R)-7-chloro-2-[trans-4-(dimethylamino)cyclohexyl]-N-[(4,6-dimethyl-2-oxo-1,2-dihydropyridin-3-yl)methyl]-2,4-dimethyl-1,3-benzodioxole-5-carboxamide], in experiment [1], the “Reduction in HTLV-1 pro-viral load” value was “significant reduction in pro-viral load” and the “Cases in which HTLV-1 pro-viral load in HAM patient's PBMC decreases” value is listed as 5 out of 8. For the same compound, in the experiment on HCT-4 cells, the “Number of early apoptotic cells (Annexin V (+) 7-AAD (−))” value is recorded as “the number of early apoptotic cells increased” and the “Number of viable cells (FSC-SSC)” value is on record as “the number of viable cells decreases”. In addition, the GI50 in the experiment on HAM patient-derived PBMC (setting [2]) worked out at 33.9 nM. In addition, the GI50 with HAM patient-derived PBMC (setting [3]) worked out at 25.9 nM. Moreover, the “Suppression of autoproliferation activity of HAM patient-derived PBMC” value with HAM patient-derived PBMC is “suppressed autoproliferation activity of PBMC in all the eight HAM patient cases, in a concentration-dependent manner”.

For the origin of these results see patent US11311524B2, “Pharmaceutical composition used for treatment of HTLV-1-associated myelopathy” (DAIICHI SANKYO COMPANY, LIMITED, priority 2017, dated 2022).
